We go through 16 compounds from ChEMBL document CHEMBL4414638, “Structure-Activity Relationship of Peptide-Conjugated Chloramphenicol for Inhibiting Escherichia coli” (J Med Chem, 2019).

Converted amounts (≈) assume the structure as drawn. *1 amine or outer side, *2 acyl side, *3 side chain or, on linkers, in order; H or OH if unused. Where a SMILES comes first, the peptide text is derived from it. [ ]: non-standard residue; d: D form. The star is where a group is joined. X1 = O=C(CCC(=O)[*:2])OC[C@@H](N[*:1])[C@H](O)c1ccc([N+](=O)[O-])cc1; Dichloroacetyl = O=C(C(Cl)Cl)*

One series deals with Escherichia coli. The experiment in a line: Antibacterial activity against Escherichia coli K-12 assessed as reduction in bacterial growth incubated for 16 hrs. Format: functional. The note with it: K-12, 16 h.
A short description of series [1]: Cytotoxicity in human HS5 cells assessed as reduction in cell viability at 20 uM to 2 mM incubated up to […]rs relative to chloramphenicol. Format: cell-based.
For the next series, the system named is HEK293. The experiment in a line: Cytotoxicity in human HEK293 cells assessed as reduction in cell viability at 20 uM […] relative to chloramphenicol. Type of series: cell-based. The note with it: hek293, 20 µM.

The MIC is the least concentration at which growth counts as inhibited. As for `CNC(=O)CNC(=O)CNC(=O)CCC(=O)OC[C@@H](NC(=O)C(Cl)Cl)[C@H](O)c1ccc([N+](=O)[O-])cc1`, the minimal inhibitory concentration (MIC) in the series with Escherichia coli is 20 µM (≈ 11 µg/mL). Besides, the Activity entry was “Non-Toxic” in series [1] and “Toxic” in the series on HEK293. Regarding `O=C(CCC(=O)OC[C@@H](NC(=O)C(Cl)Cl)[C@H](O)c1ccc([N+](=O)[O-])cc1)NCCS(=O)(=O)O`, the MIC in the series with Escherichia coli stood at 40 µM (≈ 21.2 µg/mL). Consider `O=C(O)CNC(=O)CNC(=O)[C@H](Cc1ccccc1)NC(=O)CCC(=O)OC[C@@H](NC(=O)C(Cl)Cl)[C@H](O)c1ccc([N+](=O)[O-])cc1`, for which the minimum inhibitory concentration (MIC) in the series on Escherichia coli is 80 µM (≈ 54.8 µg/mL). In the case of `O=C(O)CCC(=O)OC[C@@H](NC(=O)C(Cl)Cl)[C@H](O)c1ccc([N+](=O)[O-])cc1` [CHLORAMPHENICOL SUCCINIC ACID], the MIC in the series on Escherichia coli is above 200 µM. The Activity result in series [1] was “Non-Toxic”; in the series with HEK293, “Toxic”. For `O=C(O)CNC(=O)CNC(=O)CNC(=O)CNC(=O)CNC(=O)CCC(=O)OC[C@@H](NC(=O)C(Cl)Cl)[C@H](O)c1ccc([N+](=O)[O-])cc1` (Dichloroacetyl-[X1]GGGGG-OH), the minimal inhibitory concentration (MIC) with Escherichia coli turned out to be 40 µM (≈ 28.3 µg/mL). Turning to `C[C@H](NC(=O)[C@H](C)NC(=O)[C@H](C)NC(=O)CCC(=O)OC[C@@H](NC(=O)C(Cl)Cl)[C@H](O)c1ccc([N+](=O)[O-])cc1)C(=O)O`, the minimum inhibitory concentration (MIC) in the series with Escherichia coli was found to be 100 µM (≈ 63.6 µg/mL). `N=C(N)NCCC[C@@H](NC(=O)[C@@H](CCCNC(=N)N)NC(=O)[C@@H](Cc1ccccc1)NC(=O)[C@@H](Cc1ccccc1)NC(=O)CCC(=O)OC[C@@H](NC(=O)C(Cl)Cl)[C@H](O)c1ccc([N+](=O)[O-])cc1)C(=O)O`: the MIC in the series with Escherichia coli is 200 µM (≈ 206 µg/mL). For `O=C(N[C@H](CO)[C@H](O)c1ccc([N+](=O)[O-])cc1)C(Cl)Cl` [CHLORAMPHENICOL], the MIC with Escherichia coli came out at 20 µM (≈ 6.46 µg/mL). In the series with HEK293, the Activity result is on record as “Toxic”. With `CC(C)C[C@@H](NC(=O)CNC(=O)CCC(=O)OC[C@@H](NC(=O)C(Cl)Cl)[C@H](O)c1ccc([N+](=O)[O-])cc1)C(=O)O`, the MIC in the series with Escherichia coli was 20 µM (≈ 11.9 µg/mL). For the same compound, the Activity result is recorded as “Non-Toxic” in series [1] and “Toxic” with HEK293. As for `O=C(CCC(=O)OC[C@@H](NC(=O)C(Cl)Cl)[C@H](O)c1ccc([N+](=O)[O-])cc1)N[C@H](Cc1ccccc1)C(=O)N[C@H](Cc1ccccc1)C(=O)N[C@H](Cc1ccc2ccccc2c1)C(=O)O`, the minimum inhibitory concentration (MIC) with Escherichia coli is above 200 µM.

Consider `O=C(O)CNC(=O)CNC(=O)CNC(=O)CNC(=O)CCC(=O)OC[C@@H](NC(=O)C(Cl)Cl)[C@H](O)c1ccc([N+](=O)[O-])cc1` (Dichloroacetyl-[X1]GGGG-OH), for which the MIC with Escherichia coli was found to be 20 µM (≈ 13 µg/mL). Also, the results for the Activity entry (in series [1]; in the series with HEK293) were “Non-Toxic” and “Toxic”, respectively. In the case of `C[C@@H](NC(=O)CCC(=O)OC[C@@H](NC(=O)C(Cl)Cl)[C@H](O)c1ccc([N+](=O)[O-])cc1)C(=O)O`, in the series on Escherichia coli, the MIC is above 200 µM. With `C[C@@H](NC(=O)[C@@H](C)NC(=O)CCC(=O)OC[C@@H](NC(=O)C(Cl)Cl)[C@H](O)c1ccc([N+](=O)[O-])cc1)C(=O)O`, the MIC in the series on Escherichia coli came to 80 µM (≈ 45.2 µg/mL). For the compound `O=C(O)CNC(=O)[C@H](Cc1ccccc1)NC(=O)CNC(=O)CCC(=O)OC[C@@H](NC(=O)C(Cl)Cl)[C@H](O)c1ccc([N+](=O)[O-])cc1`, the MIC in the series with Escherichia coli worked out at 20 µM (≈ 13.7 µg/mL). Besides, the Activity result in series [1] was “Non-Toxic”; in the series on HEK293, “Toxic”. The like results for `O=C(CCC(=O)OC[C@@H](NC(=O)C(Cl)Cl)[C@H](O)c1ccc([N+](=O)[O-])cc1)NCC(=O)NCC(=O)N[C@@H](Cc1ccccc1)C(=O)N[C@@H](Cc1ccccc1)C(=O)O` were, in that order, 20 µM (≈ 16.6 µg/mL), “Non-Toxic” and “Toxic”. With `O=C(CCC(=O)OC[C@@H](NC(=O)C(Cl)Cl)[C@H](O)c1ccc([N+](=O)[O-])cc1)NCC(=O)NCC(=O)N[C@@H](Cc1ccccc1)C(=O)O`, the MIC in the series on Escherichia coli was found to be 20 µM (≈ 13.7 µg/mL). The Activity entry in series [1] is recorded as “Non-Toxic”; in the series with HEK293, “Toxic”.
